This passage reports EC50 results from US12110305B2, “Prodrugs of phosphonamide nucleotide analogues and their pharmaceutical use” (priority 2020, dated 2024).

The first experiment relates to HIV-1 (IIIB). The experiment in a line: Antiviral (HIV) assay in MT-4 cells. Particulars: HIV-1 IIIB in MT-4 cells, 5 days incubation, Cell Titer Glo; average of at least two independent experiments; read-out: MT4 HIV EC50. The class given is cell-based. The method, boiled down:
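MT-4 cells, infected with HIV-1 IIIB (1:250 dilution of concentrated stock) or mock-infected, were exposed to 1:3 serially diluted compounds in RPMI with 10% FBS. After 5 days at 37° C., CellTiter-Glo luminescence was read. EC50 = concentration causing […], from sigmoidal dose-response fits.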
On the technique in general: In ATP-based viability assays light output follows the ATP content of the culture.
Turning to `CCC(CC)COC(=O)C(C)(C)N[P@](=O)(CO[C@H](C)Cn1cnc2c(N)ncnc21)NC1(C(=O)OCC(CC)CC)CC1` [Example 71, 2-Ethylbutyl 1-(((R)-((((R)-1-(6-amino-9H-purin-9-yl)propan-2-yl)oxy)methyl)((1-(2-ethylbutoxy)-2-methyl-1-oxopropan-2-l)amino)phosphoryl)amino)cyclopropane-1-carboxylate], the EC50 amounted to 233 nM.

Staying with this experiment, now noted: Human immunodeficiency virus 1, MT4, 120 h; HIV-1 IIIB in MT-4 cells, 5 days incubation, Cell Titer Glo; average of at least two independent experiments.
In the case of `CCCCCCOC(=O)C(C)(C)NP(=O)(CO[C@H](C)Cn1cnc2c(N)ncnc21)NC(C)(C)C(=O)OCC12CCC(CC1)C2` (stereo partly drawn) [Example 80, Bicyclo[2.2.1]heptan-1-ylmethyl 2-((((((R)-1-(6-amino-9H-purin-9-yl)propan-2-yl)oxy)methyl)((1-(hexyloxy)-2-methyl-1-oxopropan-2-yl)amino)phosphoryl)amino)-2-methylpropanoate], the EC50 is > 500 nM.

`CCCCCCCCCCCC(=O)Nc1ncnc2c1ncn2C[C@@H](C)OCP(=O)(NC(C)(C)C(=O)OCCCCCC)NC(C)(C)C(=O)OCCCCCC` [Example 30, Dihexyl 2,2′-(((((1-(6-dodecanamido-9H-purin-9-yl)propan-2-yl)oxy)methyl)phosphoryl)bis(azanediyl))(R)-bis(2-methylpropanoate)] gave an EC50 of 68 nM.

Turning to `C[C@H](Cn1cnc2c(N)ncnc21)OCP(=O)(NC(C)(C)C(=O)O[C@H]1CC[C@H](c2ccccc2)CC1)NC(C)(C)C(=O)O[C@H]1CC[C@H](c2ccccc2)CC1` [Example 93, Bis(trans-4-phenylcyclohexyl) 2,2′-((((((R)-1-(6-amino-9H-purin-9-yl)propan-2-yl)oxy)methyl)phosphoryl)bis(azanediyl))bis(2-methylpropanoate)], the EC50 turned out to be 97 nM. Still for that read-out and setting: under `C[C@H](Cn1cnc2c(N)ncnc21)OCP(=O)(NC(C)(C)C(=O)OCC1CC2(C1)CC(F)(F)C2)NC(C)(C)C(=O)OCC1CC2(C1)CC(F)(F)C2` [Example 58, Bis((6,6-difluorospiro[3.3]heptan-2-yl)methyl) 2,2′-(((((1-(6-amino-9H-purin-9-yl)propan-2-yl)oxy)methyl)phosphoryl)bis(azanediyl))(R)-bis(2-methylpropanoate)] stands 5 nM; under `C[C@H](Cn1cnc2c(N)ncnc21)OCP(=O)(NC(C)(C)C(=O)OCC(C)(C)C)NC(C)(C)C(=O)OCC(C)(C)C` [Example 5], 5 nM. `CCCCOC(=O)C(C)(C)NP(=O)(CO[C@H](C)Cn1cnc2c(N)ncnc21)NC(C)(C)C(=O)OCCCC` [Example 38, Dibutyl 2,2′-(((((1-(6-amino-9H-purin-9-yl)propan-2-yl)oxy)methyl)phosphoryl)bis(azanediyl))(R)-bis(2-methylpropanoate)]: the EC50 is 10 nM. Regarding `CCC(CC)COC(=O)C(C)(C)N[P@@](=O)(CO[C@H](C)Cn1cnc2c(N)ncnc21)NC1(C(=O)OCC(CC)CC)CC1` [Example 72, 2-Ethylbutyl 1-(((S)-((((R)-1-(6-amino-9H-purin-9-yl)propan-2-yl)oxy)methyl)((1-(2-ethylbutoxy)-2-methyl-1-oxopropan-2-yl)amino)phosphoryl)amino)cyclopropane-1-carboxylate], the EC50 stood at 16 nM.

`C[C@H](Cn1cnc2c(N)ncnc21)OCP(=O)(NC(C)(C)C(=O)OC1CCCC1)NC(C)(C)C(=O)OC1CCCC1` [Example 34, Dicyclopentyl 2,2′-(((((1-(6-amino-9H-purin-9-yl)propan-2-yl)oxy)methyl)phosphoryl)bis(azanediyl))(R)-bis(2-methylpropanoate)] had an EC50 of 3 nM.

On to `CCCCCCOC(=O)C(C)(C)NP(=O)(CO[C@H](C)Cn1cnc2c(NCc3oc(=O)oc3C)ncnc21)NC(C)(C)C(=O)OCCCCCC` [Example 82, Dihexyl 2,2′-(((((1-(6-(((5-methyl-2-oxo-1,3-dioxol-4-yl)methyl)amino)-9H-purin-9-yl)propan-2-yl)oxy)methyl)phosphoryl)bis(azanediyl))(R)-bis(2-methylpropanoate)], for which the EC50 was determined as 345 nM. `CC(C)CCOC(=O)C(C)(C)NP(=O)(CO[C@H](C)Cn1cnc2c(N)ncnc21)NC(C)(C)C(=O)OCCC(C)C` [Example 6, Diisopentyl 2,2′-(((((1-(6-amino-9H-purin-9-yl)propan-2-yl)oxy)methyl)phosphoryl)bis(azanediyl))(R)-bis(2-methylpropanoate)] yielded an EC50 of 2 nM. Still for that read-out and setting: for `C[C@H](Cn1cnc2c(N)ncnc21)OCP(=O)(N[C@@](C)(Cc1ccccc1)C(=O)OCC1CCCCC1)N[C@@](C)(Cc1ccccc1)C(=O)OCC1CCCCC1` [Example 15, Bis(cyclohexylmethyl) 2,2′-((((((R)-1-(6-amino-9H-purin-9-yl)propan-2-yl)oxy)methyl)phosphoryl)bis(azanediyl))(2S,2'S)-bis(2-methyl-3-phenylpropanoate)] the value was 17 nM. Turning to `C[C@H](Cn1cnc2c(N)ncnc21)OCP(=O)(NC(C)(C)C(=O)OC1CCC2(CCCC2)CC1)NC(C)(C)C(=O)OC1CCC2(CCCC2)CC1` (stereo partly drawn) [Example 61, Di(spiro[4.5]decan-8-yl) 2,2′-(((((1-(6-amino-9H-purin-9-yl)propan-2-yl)oxy)methyl)phosphoryl)bis(azanediyl))(R)-bis(2-methylpropanoate)], a half-maximal response (EC50) required 28 nM. `CC(C)CCCCOC(=O)C(C)(C)NP(=O)(CO[C@H](C)Cn1cnc2c(N)ncnc21)NC(C)(C)C(=O)OCCCCC(C)C` [Example 68, Bis(5-methylhexyl) 2,2′-(((((1-(6-amino-9H-purin-9-yl)propan-2-yl)oxy)methyl)phosphoryl)bis(azanediyl))(R)-bis(2-methylpropanoate)] came in with an EC50 of 9 nM. Consider `C[C@H](Cn1cnc2c(N)ncnc21)OCP(=O)(NC(C)(C)C(=O)OCC1CCCC1)NC(C)(C)C(=O)OCC1CCCC1` [Example 45, Bis(cyclopentylmethyl) 2,2′-(((((1-(6-amino-9H-purin-9-yl)propan-2-yl)oxy)methyl)phosphoryl)bis(azanediyl))(R)-bis(2-methylpropanoate)], for which the EC50 was 3 nM. The same measure, in the same setting: for `CCCCCCOC(=O)[C@@]1(NP(=O)(CO[C@H](C)Cn2cnc3c(N)ncnc32)N[C@]2(C(=O)OCCCCCC)C[C@H]2CC)C[C@H]1CC` [Example 17, Dihexyl 1,1′-((((((R)-1-(6-amino-9H-purin-9-yl)propan-2-yl)oxy)methyl)phosphoryl)bis(azanediyl))(1R,1′R,2R,2′R)-bis(2-ethylcyclopropane-1-carboxylate)] the value was > 500 nM; for `CCCCCCOC(=O)C(C)(C)NP(=O)(CO[C@H](C)Cn1cnc2c(NC(C)=O)ncnc21)NC(C)(C)C(=O)OCCCCCC` [Example 28, Dihexyl 2,2′-(((((1-(6-acetamido-9H-purin-9-yl)propan-2-yl)oxy)methyl)phosphoryl)bis(azanediyl))(R)-bis(2-methylpropanoate)], 65 nM; for `C[C@H](Cn1cnc2c(N)ncnc21)OCP(=O)(NC(C)(C)C(=O)OCC1CCC1)NC(C)(C)C(=O)OCC1CCC1` [Example 37, Bis(cyclobutylmethyl) 2,2′-(((((1-(6-amino-9H-purin-9-yl)propan-2-yl)oxy)methyl)phosphoryl)bis(azanediyl))(R)-bis(2-methylpropanoate)], 4 nM. Same read-out and setting: for `CCCCCCOC(=O)C(NP(=O)(CO[C@H](C)Cn1cnc2c(N)ncnc21)NC(C(=O)OCCCCCC)(C1CC1)C1CC1)(C1CC1)C1CC1` [Example 64, Dihexyl 2,2′-(((((1-(6-amino-9H-purin-9-yl)propan-2-yl)oxy)methyl)phosphoryl)bis(azanediyl))(R)-bis(2,2-dicyclopropylacetate)] the value was > 500 nM; for `CCCCCCOC(=O)C(C)(C)NP(=O)(CO[C@H](C)Cn1cnc2c(NC(=O)OC(C)(C)CC(=O)OCc3oc(=O)oc3C)ncnc21)NC(C)(C)C(=O)OCCCCCC` [Example 101, Dihexyl 2,2′-(((((1-(6-((((2-methyl-4-((5-methyl-2-oxo-1,3-dioxol-4-yl)methoxy)-4-oxobutan-2-yl)oxy)carbonyl)amino)-9H-purin-9-yl)propan-2-yl)oxy)methyl)phosphoryl)bis(azanediyl))(R)-bis(2-methylpropanoate)], 12 nM. Turning to `CCCCCCOC(=O)C(C)(C)NP(=O)(CO[C@H](C)Cn1cnc2c(N)ncnc21)NC(C)(C)C(=O)OCCCCCC` [Example 1, Dihexyl 2,2′-(((((1-(6-amino-9H-purin-9-yl)propan-2-yl)oxy)methyl)phosphoryl)bis(azanediyl))(R)-bis(2-methylpropanoate)], the EC50 was 5 nM. On the same count and under the same terms, for `CCCC(CCC)COC(=O)C(C)(C)NP(=O)(CO[C@H](C)Cn1cnc2c(N)ncnc21)NC(C)(C)C(=O)OCC(CCC)CCC` [Example 69, Bis(2-propylpentyl) 2,2′-(((((1-(6-amino-9H-purin-9-yl)propan-2-yl)oxy)methyl)phosphoryl)bis(azanediyl))(R)-bis(2-methylpropanoate)] the value was 24 nM; for `C[C@H](Cn1cnc2c(N)ncnc21)OCP(=O)(NC(C)(C)C(=O)OC1CCC1)NC(C)(C)C(=O)OC1CCC1` [Example 47, Dicyclobutyl 2,2′-(((((1-(6-amino-9H-purin-9-yl)propan-2-yl)oxy)methyl)phosphoryl)bis(azanediyl))(R)-bis(2-methylpropanoate)], 7 nM; for `CCC1(CC)CC(OC(=O)C(C)(C)NP(=O)(CO[C@H](C)Cn2cnc3c(N)ncnc32)NC(C)(C)C(=O)OC2CC(CC)(CC)C2)C1` [Example 49, Bis(3,3-diethylcyclobutyl) 2,2′-(((((1-(6-amino-9H-purin-9-yl)propan-2-yl)oxy)methyl)phosphoryl)bis(azanediyl))(R)-bis(2-methylpropanoate)], 5 nM.

`C[C@H](Cn1cnc2c(N)ncnc21)OCP(=O)(NC(C)(C)C(=O)OCC1CC2(CCC2)C1)NC(C)(C)C(=O)OCC1CC2(CCC2)C1` (stereo partly drawn) [Example 50, Bis(spiro[3.3]heptan-2-ylmethyl) 2,2′-(((((1-(6-amino-9H-purin-9-yl)propan-2-yl)oxy)methyl)phosphoryl)bis(azanediyl))(R)-bis(2-methylpropanoate)] gave an EC50 of 7 nM.

By EC50 is commonly meant the concentration giving half of the maximal effect.
